ChEMBL document CHEMBL1649240, “Brain penetration of colistin in mice assessed by a novel high-performance liquid chromatographic technique” (Antimicrob Agents Chemother, 2009)

Key:
Assay type in all cases: ADME, organism-based
Design in all cases: dose 5 mg/kg, route intravenous
[1] = tested on: Brain; assay: Drug level in mouse brain homogenate assessed as compound recovery after 4 hr post dose measured on basis of intraday target compound concentration of 375 ng/g of brain tissue at 5 mg/kg, iv bolus dose by HPLC; conditions: in vivo
[2] = tested on: Brain; assay: Drug level in mouse brain homogenate assessed as compound recovery after 4 hr post dose measured on basis of intraday target compound concentration of 3000 ng/g of brain tissue at 5 mg/kg, iv bolus dose by HPLC; conditions: in vivo
[3] = Ratio of drug level in brain to plasma in Swiss mouse at 5 mg/kg, iv
[4] = tested on: Brain; assay: Drug level in mouse brain homogenate assessed as compound recovery after 4 hr post dose measured on basis of intraday target compound concentration of 93.8 ng/g of brain tissue at 5 mg/kg, iv bolus dose by HPLC; conditions: in vivo

Work on COLISTIN yielded an Activity [1] of 86%, an Activity [2] of 96% and a Ratio [3] of 0.02. For the same sequence, the Activity [4] was 87%.
